Among the data in patent publication US10894784B2, “Heteroarylbenzimidazole compounds” (BAYER PHARMA AKTIENGESELLSCHAFT, priority 2015, dated 2021) are IC50 values, retold here.

In general, IC50 refers to the concentration needed to halve the response being measured.

The structures appear in SMILES notation.

Sequence of TBK1 (Q9UHD2 whole entry): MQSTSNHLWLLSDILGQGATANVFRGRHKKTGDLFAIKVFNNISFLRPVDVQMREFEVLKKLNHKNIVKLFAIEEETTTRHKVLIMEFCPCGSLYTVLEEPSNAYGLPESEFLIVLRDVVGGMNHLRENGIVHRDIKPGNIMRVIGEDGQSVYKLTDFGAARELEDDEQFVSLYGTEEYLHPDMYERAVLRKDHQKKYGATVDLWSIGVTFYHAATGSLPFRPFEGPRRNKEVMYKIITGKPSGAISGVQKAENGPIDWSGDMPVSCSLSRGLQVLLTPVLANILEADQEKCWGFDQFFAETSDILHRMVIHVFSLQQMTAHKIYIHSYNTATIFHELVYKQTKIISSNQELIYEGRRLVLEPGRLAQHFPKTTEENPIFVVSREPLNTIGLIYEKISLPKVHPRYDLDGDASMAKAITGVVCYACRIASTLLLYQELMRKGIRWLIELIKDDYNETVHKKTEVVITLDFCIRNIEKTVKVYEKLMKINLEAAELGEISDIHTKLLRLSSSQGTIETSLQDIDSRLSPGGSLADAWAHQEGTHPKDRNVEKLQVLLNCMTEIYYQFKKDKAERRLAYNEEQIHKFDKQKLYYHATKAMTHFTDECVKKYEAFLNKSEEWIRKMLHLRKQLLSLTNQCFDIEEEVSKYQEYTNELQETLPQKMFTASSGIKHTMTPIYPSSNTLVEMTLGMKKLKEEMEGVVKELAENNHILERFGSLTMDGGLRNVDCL

The first experiment concerns the target TBK1 (Homo sapiens (Human), UniProt Q9UHD2). The experiment in a line: TBK1 low ATP kinase assay (in vitro assay 1). The class given is biochemical. To be noted: TBK1 low ATP kinase assay IC50, in vitro assay 1.
In the case of `CC(c1ccnc(Nc2nc3ccc(-c4cc(OCC5CC5)ncn4)cc3[nH]2)c1)N1CCN(C(=O)CC(F)(F)F)CC1` (single isomer, unassigned) [Example 85.03, 1-(4-{(1R or 1S)-1-[2-({6-[6-(cyclopropylmethoxy)pyrimidin-4-yl]-1H-benzimidazol-2-yl}amino)pyridin-4-yl]ethyl}piperazin-1-yl)-3,3,3-trifluoropropan-1-one], 1.8 nM corresponded to half-maximal inhibition (IC50).

The same experiment, now with this note: in vitro assay 1, read-out: TBK1 low ATP kinase assay IC50.
Regarding `CN(C)c1ccnc(-c2ccc3nc(Nc4cc(CN5CCN(C(=O)OC(C)(C)C)CC5)ccn4)[nH]c3c2)n1` [Example 181.01, tert-butyl 4-{[2-({6-[4-(dimethylamino)pyrimidin-2-yl]-1H-benzimidazol-2-yl}amino)pyridin-4-yl]methyl}piperazine-1-carboxylate], the IC50 was found to be 791 nM. In the case of `CC(c1ccnc(Nc2nc3ccc(-c4ccncn4)cc3[nH]2)c1)N1CCN(C(=O)C2CCC2)CC1` (racemic) [Example 23.04.01, (rac)-cyclobutyl{4-[1-(2-{[6-(pyrimidin-4-yl)-1H-benzimidazol-2-yl]amino}pyridin-4-yl)ethyl]piperazin-1-yl}methanone], the IC50 came out at 3.44 nM. On to `Cc1noc(-c2ccc3nc(Nc4cc(C(C)N5CCN(C(=O)OC(C)(C)C)CC5)ccn4)[nH]c3c2)n1` (racemic) [Example 16.05.01, (rac)-tert-butyl 4-[1-(2-{[6-(3-methyl-1,2,4-oxadiazol-5-yl)-1H-benzimidazol-2-yl]amino}pyridin-4-yl)ethyl]piperazine-1-carboxylate], for which the IC50 turned out to be 82.5 nM. Take `Cc1nccc(-c2ccc3nc(Nc4cc(C(C)N5CCN(C(=O)CC6CC6)CC5)ccn4)[nH]c3c2)n1` (single isomer, unassigned) [Example 24.05.03.A, 2-cyclopropyl-1-{4-[(1R or 1S)-1-(2-{[6-(2-methylpyrimidin-4-yl)-1H-benzimidazol-2-yl]amino}pyridin-4-yl)ethyl]piperazin-1-yl}ethanone]: the IC50 is 45.4 nM. Same read-out and setting: for `Cc1cc(-c2ccc3nc(Nc4cc(C(C)N5CCN(C(=O)OC(C)(C)C)CC5)ccn4)[nH]c3c2)n(C)n1` (single isomer, unassigned) [Example 89.01, tert-butyl 4-[(1R or 1S)-1-(2-{[6-(1,3-dimethyl-1H-pyrazol-5-yl)-1H-benzimidazol-2-yl]amino}pyridin-4-yl)ethyl]piperazine-1-carboxylate] the value was 610 nM; for `Nc1cc(-c2ccc3nc(Nc4cc(CN5CCN(C(=O)CC(F)(F)F)CC5)ccn4)[nH]c3c2)ccn1` [Example 138.02, 1-{4-[(2-{[6-(2-aminopyridin-4-yl)-1H-benzimidazol-2-yl]amino}pyridin-4-yl)methyl]piperazin-1-yl}-3,3,3-trifluoropropan-1-one], 4.1 nM. On to `COc1c(NCC2CC2)ncnc1-c1ccc2nc(Nc3cc(C(C)N4CCN(C(=O)OC(C)(C)C)CC4)ccn3)[nH]c2c1` (single isomer, unassigned) [Example 109.02.01, tert-butyl 4-[(1R or 1S)-1-{2-[(6-{6-[(cyclopropylmethyl)amino]-5-methoxypyrimidin-4-yl}-1H-benzimidazol-2-yl)amino]pyridin-4-yl}ethyl]piperazine-1-carboxylate], for which the IC50 amounted to 8 nM.

For `CC(c1ccnc(Nc2nc3ccc(-c4cnn(CC5CCC5)c4)cc3[nH]2)c1)N1CCN(C(=O)OC(C)(C)C)CC1` (single isomer, unassigned) [Example 59.01.01, tert-butyl 4-{(1R or 1S)-1-[2-({6-[1-(cyclobutylmethyl)-1H-pyrazol-4-yl]-1H-benzimidazol-2-yl}amino)pyridin-4-yl]ethyl}piperazine-1-carboxylate], the IC50 stood at 14.2 nM. The same measure, in the same setting: with `CC(c1ccnc(Nc2nc3ccc(-c4cc(N5CC(F)(F)C5)ncn4)cc3[nH]2)c1)N1CCN(C(=O)C2CC2)CC1` (single isomer, unassigned) [Example 116.02, cyclopropyl(4-{(1R or 1S)-1-[2-({6-[6-(3,3-difluoroazetidin-1-yl)pyrimidin-4-yl]-1H-benzimidazol-2-yl}amino)pyridin-4-yl]ethyl}piperazin-1-yl)methanone] the figure was 0.76 nM. Turning to `COc1cnc(C)cc1-c1ccc2nc(Nc3cc(CN4CCN(C(=O)C5CCC5)CC4)ccn3)[nH]c2c1` [Example 07.03, cyclobutyl{4-[(2-{[6-(5-methoxy-2-methylpyridin-4-yl)-1H-benzimidazol-2-yl]amino}pyridin-4-yl)methyl]piperazin-1-yl}methanone], the IC50 came to 384 nM. Regarding `Cc1c(-c2ccc3nc(Nc4cc(CN5CCN(C(=O)C6CC6)CC5)ccn4)[nH]c3c2)ncnc1C(F)(F)F` [Example 183.03, cyclopropyl(4-{[2-({6-[5-methyl-6-(trifluoromethyl)pyrimidin-4-yl]-1H-benzimidazol-2-yl}amino)pyridin-4-yl]methyl}piperazin-1-yl)methanone], the IC50 came to 2240 nM. The same measure, in the same setting: with `O=C(CC(F)(F)F)N1CCN(Cc2ccnc(Nc3nc4ccc(-c5cc(OCC6(C(F)(F)F)CC6)ncn5)cc4[nH]3)c2)CC1` [Example 158.02, 3,3,3-trifluoro-1-{4-[(2-{[6-(6-{[1-(trifluoromethyl)cyclopropyl]methoxy}pyrimidin-4-yl)-1H-benzimidazol-2-yl]amino}pyridin-4-yl)methyl]piperazin-1-yl}propan-1-one] the figure was 21 nM; with `CC(c1ccnc(Nc2nc3ccc(-c4cc(C(F)(F)F)ncn4)cc3[nH]2)c1)N1CCN(C(=O)CC(F)(F)F)CC1` (single isomer, unassigned) [Example 29.02.01.B, 3,3,3-trifluoro-1-(4-{(1S or 1R)-1-[2-({6-[6-(trifluoromethyl)pyrimidin-4-yl]-1H-benzimidazol-2-yl}amino)pyridin-4-yl]ethyl}piperazin-1-yl)propan-1-one], 8.64 nM. For the compound `Cc1c(-c2ccc3nc(Nc4cc(CN5CCN(C(=O)OC(C)(C)C)CC5)ccn4)[nH]c3c2)ncnc1C(F)(F)F` [Example 183.01, tert-butyl 4-{[2-({6-[5-methyl-6-(trifluoromethyl)pyrimidin-4-yl]-1H-benzimidazol-2-yl}amino)pyridin-4-yl]methyl}piperazine-1-carboxylate], the IC50 came out at 7280 nM. On the same count and under the same terms, for `O=C(C1CC1)N1CCN(Cc2ccnc(Nc3nc4ccc(-c5cc(C6CC6)ncn5)cc4[nH]3)c2)CC1` [Example 76.02, cyclopropyl{4-[(2-{[6-(6-cyclopropylpyrimidin-4-yl)-1H-benzimidazol-2-yl]amino}pyridin-4-yl)methyl]piperazin-1-yl}methanone] the value was 9.4 nM. Regarding `CC(c1ccnc(Nc2nc3ccc(-c4ccncn4)cc3[nH]2)c1)N1CCN(C(=O)C2CC2)CC1` (single isomer, unassigned) [Example 23.05.01.A, cyclopropyl{4-[(1R or 1S)-1-(2-{[6-(pyrimidin-4-yl)-1H-benzimidazol-2-yl]amino}pyridin-4-yl)ethyl]piperazin-1-yl}methanone], the IC50 came out at 2.05 nM. Take `CC(C)Nc1ncnc(-c2ccc3nc(Nc4cc(CN5CCN(C(=O)CC(F)(F)F)CC5)ccn4)[nH]c3c2)c1F` [Example 193.02, 3,3,3-trifluoro-1-(4-{[2-({6-[5-fluoro-6-(propan-2-ylamino)pyrimidin-4-yl]-1H-benzimidazol-2-yl}amino)pyridin-4-yl]methyl}piperazin-1-yl)propan-1-one]: the IC50 amounted to 34.6 nM.
